Experimental findings from ChEMBL document CHEMBL1149492, “Discovery of potent and stable conformationally constrained analogues of the MCH R1 antagonist SB-568849” (Bioorg Med Chem Lett, 2006) are described below.

SMILES strings stand for the structures.

For data set [1], the target named is Melanin-concentrating hormone receptor 1 (Homo sapiens, UniProt Q99705). Description: Displacement of radiolabeled iodo-MCH from human MCHR1 expressed in HEK293 cells. In kind it is cell-based.
A short description of data set [2]: Stability in aqueous phosphate buffer at pH 7. In kind it is physicochemical.
A further data set has as its system Liver microsomes. Description: Intrinsic clearance in human liver microsome. Format: ADME. In general terms: Liver microsomes are vesicles of endoplasmic reticulum, rich in cytochrome P450 enzymes.

Sequence of Melanin-concentrating hormone receptor 1 (Q99705 whole entry): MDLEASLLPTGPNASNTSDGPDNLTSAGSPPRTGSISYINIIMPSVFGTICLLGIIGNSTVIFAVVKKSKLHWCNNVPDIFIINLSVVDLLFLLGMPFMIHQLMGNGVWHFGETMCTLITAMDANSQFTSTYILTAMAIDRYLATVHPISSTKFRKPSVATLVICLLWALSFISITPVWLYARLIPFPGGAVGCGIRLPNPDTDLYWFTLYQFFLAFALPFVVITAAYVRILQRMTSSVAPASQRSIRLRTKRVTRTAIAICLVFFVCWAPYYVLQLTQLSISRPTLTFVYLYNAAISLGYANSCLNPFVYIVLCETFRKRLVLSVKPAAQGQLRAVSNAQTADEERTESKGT

`COc1cc(NC(=O)c2ccc(C3CCCCC3)cc2)ccc1OC12CCCN(CC1)C2` (centres undefined): the affinity in data set [1], expressed as Ki, was 50.1 nM.

Turning to `CCN1CCN(c2ccc(NC(=O)c3ccc(C4CCCCC4)cc3)cc2OC)CC1`, the inhibitory constant (Ki) (commonly the equilibrium dissociation constant of an inhibitor or competing ligand from its target) in data set [1] is 79.4 nM. Still for that read-out and setting: the figure for `COc1cc(-n2nnc3ccc(Oc4ccccc4)cc3c2=O)ccc1OCCN1CCCC1` is 39.8 nM. Still for that read-out and setting: the figure for `COc1cc(-n2cnc3sc(-c4ccccc4)cc3c2=O)ccc1OCCN1CCCC1` is 794 nM.

`COc1cc(-n2cnc3cc(-c4ccccc4)sc3c2=O)ccc1OCCN1CCCC1`: the Stability result in data set [2] is “Stable”. In data set [1], this compound had an inhibitory constant (Ki) of 20 nM. `O=C(Nc1ccc(OCCN2CCCC2)cc1)c1ccc2oc3ccccc3c2c1` had an inhibition constant (Ki) in data set [1] of 2510 nM. On the same count and under the same terms, the result for `CC(C)N(CCOc1ccc(N(C)C(=O)c2ccc3c(c2)CCc2ccccc2-3)cc1)C(C)C` reads 316 nM; that for `O=C(Nc1ccc(OCCN2CCCC2)cc1)c1ccc2c(c1)CCc1ccccc1-2`, 1000 nM.

Take `COc1cc(N2Cc3ccc(-c4ccccc4)cc3C2=O)ccc1OCCN(C(C)C)C(C)C`: affinity in data set [1] was put at a Ki of 398 nM. Turning to `COc1cc(-n2cnc3cc(Oc4ccccc4)ccc3c2=O)ccc1OCCN1CCCC1`, in data set [1], the Ki is 50.1 nM. Consider `COc1cc(N2C(=O)c3ccc(Oc4ccccc4)cc3C2=O)ccc1OCCN1CCCC1`, for which the Activity entry in data set [2] is “Not Active”. Regarding `CC(C)N(CCOc1ccc(NC(=O)c2ccc3c(c2)C(=O)c2ccccc2-3)cc1)C(C)C`, in data set [1], the Ki is 200 nM. Compound `COc1cc(-n2nnc3cc(Oc4ccccc4)ccc3c2=O)ccc1OCCN1CCCC1` had a Ki in data set [1] of 79.4 nM. Turning to `COc1cc(N2C(=O)c3ccc(Sc4ccccc4)cc3C2=O)ccc1OCCN1CCCC1`, the Activity result in data set [2] is on record as “Not Active”. Also, in data set [1], the affinity corresponds to a Ki of 31.6 nM. The compound `COc1cc(-n2cnc3ccc(Oc4ccccc4)cc3c2=O)ccc1OCCN1CCCC1` gave a Ki in data set [1] of 316 nM. In the case of `COc1cc(NC(=O)c2ccc(C3CCCCC3)cc2)ccc1OC1CCN(C)C1` (centres undefined), the affinity in data set [1] corresponds to a Ki of 63.1 nM. In data set [1], `CC(C)N(CCOc1ccc(N(C)C(=O)c2ccc3c(c2)Cc2ccccc2-3)cc1)C(C)C` had a Ki of 398 nM. Compound `COc1cc(NC(=O)c2ccc(C3CCCCC3)cc2)ccc1OC[C@@H]1CCCN1C` gave a Ki in data set [1] of 39.8 nM.

As to `COc1cc(NC(=O)c2ccc(C3CCCCC3)cc2)ccc1O[C@H]1CCCC[C@@H]1N(C)C`, in data set [1], the affinity, expressed as Ki, was 2510 nM. This Ki lies about 63-fold higher than the previous one. Take `COc1cc(-n2nnc3cc(-c4ccccc4)ccc3c2=O)ccc1OCCN1CCCC1`: the Stability result in data set [2] is “Stable”. Besides, in data set [1], the inhibition constant Ki was 25.1 nM. The CL in the data set on Liver microsomes was below 1.5 mL/min/g. In data set [1], `COc1cc(NC(=O)c2ccc(C3CCCCC3)cc2)ccc1OC[C@H]1CCCN1C` had a Ki of 79.4 nM. Turning to `COc1cc(N2C(=O)c3ccc(Nc4ccccc4)cc3C2=O)ccc1OCCN1CCCC1`, in data set [2], the Activity result is “Not Active”. This compound gave a Ki in data set [1] of 15.8 nM. `COc1cc(-n2cnc3ccc(-c4ccc(Cl)cc4)cc3c2=O)ccc1OCCN1CCCC1` had a Ki in data set [1] of 1000 nM. As for `COc1cc(-n2cnc3cc(-c4ccccc4)ccc3c2=O)ccc1OCCN1CCCC1`, the Stability entry in data set [2] is reported as “Stable”. The same compound showed a Ki in data set [1] of 20 nM. Also, the CL in the data set with Liver microsomes is below 1.5 mL/min/g.

In the case of `O=C(Nc1ccc(OCCN2CCCC2)cc1)c1ccc2c(c1)Cc1ccccc1-2`, the affinity in data set [1] corresponds to a Ki of 501 nM. This lies in the sub-micromolar range.

In turn, `COc1cc(N2C(=O)c3ccc(-c4ccccc4)cc3C2=O)ccc1OCCN(C(C)C)C(C)C` showed an inhibition constant Ki in data set [1] of 126 nM. Against the preceding compound, the Ki is about 4-fold lower. Regarding `COc1cc(N(C)C(=O)c2ccc3oc4ccccc4c3c2)ccc1OCCN(C(C)C)C(C)C`, the affinity in data set [1], expressed as Ki, was 2000 nM.
